# Like-named read-outs stand apart in the source and are kept apart here.
# How the values were obtained:
# [1] = test system: blood sugar (hypoglycemic effect); assay: Test 1-D: intravenous rabbit bioassay; type: in vivo, white rabbits; conditions: rabbits, 4 I.U. i.v.; after completion of the infusion
# Experimental: FIG. 8 is a comparison of Tong-Shin insulin, the oral insulin of Example 1, and Novo insulin, pursuant to the test of Test 1-D.
# In this test, the oral insulin composition of Example 1 was compared with Novo monocomponent porcine crystalline insulin and a regular injectable insulin-40 (Tong-Shin Pharmaceutical Co.) in intravenous rabbit bioassays. Three white rabbits, each weighing 1.8 Kg were fasted overnight and were treated with an intravenous infusion over ten minutes of 4 I.U. of either the Novo insulin, the Tong-Shin insulin-40, or an emulsion comprising the oral insulin composition of Example 1. A venous blood sample was collected from the ear vein of each of the rabbits at 30 minutes prior to the insulin infusion and at times 0, 15, 30, 45, 60, 75, 90 and 105 minutes after completion of the infusions.
# venous serum sugar level = assay: Test 1-C: bioassay in pigs, serum sugar level; type: in vivo, Yorkshire pigs; conditions: 8 I.U. intravenously
# From the text: FIG. 7 is a comparison of the venous serum sugar levels of two pigs, one given the composition of Example 1 and one given Actrapid. The venous serum sugar level of the pig given Example 1 is denoted by "o" and the venous serum sugar level of the pig given actrapid is denoted by "x". The x axis is in minutes and the y axis is in millimoles of serum glucose.
# In this test, the oral insulin composition of Example 1 was compared with Actripid intravenous insulin solution (Novo) in a bioassay. Two Yorkshire pigs were fasted overnight and one pig was given 8 I.U. of the Actripid insulin intravenously. The other pig was given an intravenous infusion over a period of 15 minutes of 8 I.U. of the oral insulin composition of Example 1 that had been dissolved into 50 ml of water. Blood was taken from the pair of pigs and the serum sugar levels were measured. […] (See FIG. 7.)
# plasma glucose level = assay: Test 12B: plasma glucose in a female dog; type: in vivo
# Experimental: Hypoglycemic action of the formulation was compared to that of intra-duodenally administered regular injectable insulin (novo actrapid insulin, 1.0 IU per Kg) and of intravenously administered regular injectable insulin (novo actrapid insulin, 0.5 IU per Kg). After infusion of 1.26 IU of regular injectable insulin, intravenously, the plasma glucose level dropped from […] within 20 minutes and returned to […] within 3 hours. Then, 6 IU of regular injectable insulin was intra-duodenally given.
# blood glucose levels = assay: Test 1-E: oral insulin in healthy male volunteers, blood glucose; type: in vivo, human
# Experimental: In this test, the oral insulin composition of Example 1 was administered orally to two healthy male volunteers.
# Two healthy volunteers, weighing 52 and 54 Kg participated in the study. Each subject received a 16 I.U. dose of the oral insulin composition of Example 1 during the study. Along with the oral insulin composition of Example 1, each participant received two capsules of lipolytic enzymes. Each capsule consisted of:
# The enzyme capsules were made as follows: Pancreatic Lipase was coated with 0.1 to 0.3 microns thick coating of hydroxypropylecellulose and enteric coated with the coating of Example 1. Amylase and Protease were then added. The resultant composition was then coated with 0.1 micron of hydroxypropylcellulose. Bile Salts that had been coated with 0.1 micron of hydroxypropylcellulose was then added to a hard gel capsule with the Pancreatic Lipase resultant product.
# At 7:30 am on the day of the trial, each participant consumed a standard breakfast consisting of two fried eggs, two strips of bacon, two slices of toasted dark bread, a tablespoon of butter, and cup of black coffee. The insulin composition of Example 1 was administered orally at 10:00 am to both subjects. The oral insulin was administered in capsules comprising 16 I.U. of Novo crystalline monocomponent porcine insulin. At 12:00 both subjects consumed a standard lunch consisting of 180 gm of beef steak, a tossed green salad with oil and vinegar dressing, a piece of dark bread, and black coffee.
# Blood samples were collected from the subject at 10:00, 13:00 and 16:00 and were analyzed for blood glucose levels.
# One week later, both volunteers had the standard breakfast (i.e., the breakfast given on the first day of the test) at the same time. At 10:00 both subjects received a subcutaneous injection of 16 I.U. of Tong-Shin regular injectable insulin-40. At approximately 10:30 both subjects began to experience hypoglycemic reactions which lasted for roughly two hours. Both subjects were served pure orange juice at 11:20 and were served the standard lunch at 12:00.
# serum glucose = assay: Test 5-A: hypoglycemic effects (serum glucose); type: in vivo, human
# Experimental: (§1) The bioavailability of insulin and its corresponding hypoglycemic effects of Example 4 and Example 5 oral insulin preparations were studied in a group of IDDM and NIDDM patients. Example 4 oral insulin was also studied in two normal, healthy male volunteers. In all of the tests set forth in 5-A, the subjects received with each dose of oral insulin two capsules of the lipolytic enzyme of Test 1-E.
# (§2) At least 12 or 24 hours prior to the study the patients normal anti-diabetic therapeutic agents were withheld from the patients. After overnight fasting and fasting throughout the entire period of the study, Example 4 or Example 5 oral insulin preparations were orally administered.
# (§3) A venous sampling catheter was placed into a vein, usually at the antecubital vein, and blood samples were drawn at time 0, 1.0, 1.5, 2.0, 2.5, 3.0, 4.0 and/or 5.0 hours after the drug administration. Serum glucose was measured on a Gilfordx400, and serum insulin was analyzed by using an Immuno-Enzymatic o-Phenylendiamine (OPD) method and Insulin-B test kit of WAKO (Japan). All measurements were made in duplicate.
# (§4) As stated above, two healthy male volunteers […] participated in the study. One subject received the oral insulin of Example 4 twice over a two week period, once each week, receiving 0.20 and 0.27 IU per Kg of the oral insulin. […] Serum insulin level was peaked to 20 micro-U per ml occurring at 1.5 hours after the drug ingestion on both occasions.
# The second volunteer received 10 IU of regular injectable insulin-40 (of Tong Shin Pharm. Co. of Seoul, Korea), subcutaneously. […] They were given a glass of fresh orange juice and serum glucose level rose to about 115 mg/dl within one hour.
# (§5) Five IDDM Patients have completed all three phases of the study of test 5-A: i.e., they received 10 IU, subcutaneous injection of regular injectable insulin-40 (of Tong Shin Pharm Co. of Seoul, Korea) the first week; they received one single oral dosing of Example 4 (0.544 IU/kg average dose) one week later; and the next week they received 9 consecutive dosings of Example 4 (average dose was 0.544 IU/kg), given at 6-hour intervals.
# The Oral Insulin Example 4 was given to a total of 8 IDDM patients (10 trials) (two repeated the study) and 7 NIDDM patients (11 trials) (four patients repeated the study).
# Seven IDDM Patients completed the study after oral administration of a single dose of the Example 5 oral insulin preparation.
# [2] = Test 8: bioavailability of insulin (insulin levels in serum); type: in vivo, human; conditions: Reg. Insulin 0.172 IU/Kg s.c.; Oral Insulin 0.630 IU/Kg; IDDM
# Experimental: In two IDDM patients, bioavailability of insulin (insulin levels in serum) was measured after oral administration of Oral Insulin Formulation of Example 7 (0.63 I.U./Kg).
# Compared to 0.172 IU/Kg of Regular Insulin, subcutaneous injection in 5 IDDM patients, the `pharmacokinetic and bioavailability` of insulin are as follows:
# (§6) Each subject in Test 8 was given two capsules of the lipolytic enzyme composition set forth in Test 1-E with each dose of oral insulin.
# [3] = Test 5-A: bioavailability of insulin (serum insulin); type: in vivo, human; conditions: Regular Insulin 0.172 IU/Kg s.c.; Example 4 0.544 IU/Kg oral 1st dose; Example 5 0.649 IU/Kg oral 1st, fasting
# Experimental: as §1, §2, §3, §4, §5
# serum glucose levels = assay: Test 8: serum glucose in IDDM patients; type: in vivo, human; conditions: Regular Insulin 0.172 IU/Kg s.c., Oral Insulin 0.649 IU/Kg
# From the text: Seven Insulin-Dependent Diabetics (IDDM) patients, 6 males and one person, between 24 to 47 years old (average 34.4) weighing between 48 and 68 Kg each (average 58.6 kg) took between 32 to 48 (average 42.6) International Units of Oral Insulin Formulation of Example 7, orally, after fasting overnight and fasting throughout the study.
# as §6
# blood sugar level = conditions: oral with surfactants; cited from earlier work
# hypoglycemic effect [4] = conditions: other emulsion systems with fat soluble vitamins, dogs; cited from earlier work
# hypoglycemic response [5] = conditions: aerosol, 2.5 U/Kg, rabbits; cited from earlier work
# [6] = cited from earlier work
# [7] = buccal, cocoa fat base and surfactant, dogs; cited from earlier work
# [8] = intra-nasal, dogs; cited from earlier work
# hypoglycemic effect [9] = conditions: water/oil/water emulsion, rats; cited from earlier work
# hypoglycemic effect [10] = conditions: oral with isopropylfruorophosphate and indole-3-acetate, rats; cited from earlier work
# hypoglycemic response [11] = conditions: oral with pancreas inactivating agents; cited from earlier work
# hypoglycemic response [12] = conditions: oral, 150 IU/Kg, rabbits; cited from earlier work
# [13] = Regular Insulin 0.172 IU/Kg s.c., Example 4 0.544 IU/Kg oral 1st dose, Example 5 0.649 IU/Kg oral 1st, fasting
substance,measurement,setting,value
Novo insulin: Novo monocomponent porcine crystalline insulin,time of peak hypoglycemic effect,[1],≤ 30 min
Actripid insulin: intravenous insulin solution (Novo),"decrease of venous serum sugar level, compared between the two insulins",venous serum sugar level,decreased by roughly an equal degree
same,plasma glucose level before infusion,plasma glucose level; 1.26 IU intravenous,102 mg/dL
same,"plasma glucose level, return","plasma glucose level; 1.26 IU intravenous, within 3 hours",100 mg/dL
same,change of blood glucose level,"plasma glucose level; 6 IU intra-duodenal, over three hours",No changes in the blood glucose levels
Regular Insulin,time of peak hypoglycemic effect,[1],60 min
same,duration of hypoglycemic reactions,blood glucose levels; 16 I.U. subcutaneous,roughly two
same,time of peak hypoglycemic effect,blood glucose levels; 16 I.U. subcutaneous,roughly 3 hours
same,blood glucose / effect after six hours,"blood glucose levels; 16 I.U., 6 hours",the effect disappeared by 6 hours after administration
same,"CO, base value of Serum Glucose",serum glucose; [13],271 mg/dL
same,"Cmin, minimum value of glucose",serum glucose; [13],94.5 mg/dL
same,"T100, time to reach 100 mg/dl of serum glucose",serum glucose; [13],2.1
same,"TC-min, time of observing the minimum glucose level",serum glucose; [13],4.0
same,"dC/dT, rate of reduction in Serum Glucose levels",serum glucose; [13],59.16
same,time of insulin-induced shock symptoms,"serum glucose; healthy volunteer, 10 IU subcutaneous",72 min
same,serum glucose at time of shock symptoms,"serum glucose; healthy volunteer, 10 IU subcutaneous, 72 minutes",47 mg/dL
same,serum glucose after orange juice,"serum glucose; healthy volunteer, 10 IU subcutaneous, within one hour of orange juice",about 115 mg/dl
same,"IO, base value of insulin",[2],8.0 micro-U/ml
same,"Imax, maximum value of serum insulin",[2],20.3 micro-U/ml
same,"TI-O, time to reach the base value of serum insulin",[2],4.8
same,"TI-max, time of observing the maximum value of serum insulin",[2],1.5
same,"dI/dt, rate of rise of serum insulin (absorption rate)",[2],38.29
same,"IO, base value of Serum Insulin",[3],8.0 micro-U/ml
same,"Imax, maximum value of insulin",[3],20.3 micro-U/ml
same,"TI-O, time to reach the base value of Serum Insulin level",[3],4.8
same,"TI-max, time to reach the maximum Serum insulin level",[3],1.5
same,"dI/dT, rate of rise of serum insulin level",[3],38.29
same,"CO (printed 00), base value of glucose",serum glucose levels,271 Mg/dl
same,"Cmin, minimum value of glucose observed",serum glucose levels,94.5 Mg/dl
same,"T100, time to reach 100 mg/dl",serum glucose levels,2.1
same,"TC-min, time of observing the minimum glucose level",serum glucose levels,4.0
same,"dC/dT, rate of hypoglycemic action",serum glucose levels,59.16
insulin,intravenous dose with effect on blood sugar equivalent to 35 units orally,blood sugar level,4 units
same,hypoglycemic effects,hypoglycemic effect [4],mild and not dose responsive
same,hypoglycemic response,hypoglycemic response [5],induced hypoglycemic response
same,bioactivity after oral administration,[6],low bioactivities
same,bioavailability,[7],only poor bioavailability
same,bioavailability,[8],high bioavailability
same,intramuscular dose with effect equivalent to 250 IU/Kg orally,hypoglycemic effect [9],10 IU/Kg
same,hypoglycemic effect,hypoglycemic effect [10],induce a hypoglycemic effect
same,bioavailability equivalent of hypoglycemic response,hypoglycemic response [11],3%
beta-Naphthyl-azo-Polystearryle-insulin,hypoglycemic response,hypoglycemic response [12],induced a hypoglycemic response
